Results reported in ChEMBL document CHEMBL1201862, “PubChem BioAssay data set” (2004).
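Five compound concentrations were applied to cells in 96-well plates for 48 hours; endpoints were derived by simple linear interpolation of the resulting dose-response curve. GI50 marks 50% less growth.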 Active and inactive are the calls of the source. Rule as the data show it: active = GI50 up to about 1.1 µM and inactive = higher.

Assays:
Experiment in all cases: inhibition of tumour cell growth, NCI panel, 48 h
U-251 = system: U-251
PC-3 = system: PC-3
DLD-1 = system: DLD-1
SR = system: SR
OVCAR-5 = system: OVCAR-5
HCT-116 = system: HCT-116
UACC-257 = system: UACC-257
HL-60 = system: HL-60
SNB-75 = system: SNB-75
HOP-62 = system: HOP-62
HCT-15 = system: HCT-15
SK-MEL-5 = system: SK-MEL-5
MDA-MB-435 = system: MDA-MB-435
SN12C = system: SN12C
SK-MEL-2 = system: SK-MEL-2
LXFL 529 = system: LXFL 529
HT-29 = system: HT-29
NCI-H522 = system: NCI-H522
CAKI-1 = system: CAKI-1
SF-295 = system: SF-295
SNB-78 = system: SNB-78
786-0 = system: 786-0
OVCAR-8 = system: OVCAR-8
OVCAR-3 = system: OVCAR-3
ACHN = system: ACHN
Malme-3M = system: Malme-3M
UO-31 = system: UO-31
LOX IMVI = system: LOX IMVI
RPMI-8226 = system: RPMI-8226
SW-620 = system: SW-620
SF-539 = system: SF-539
KM12 = system: KM12
A549 = system: A549
K562 = system: K562
Hs-578T = system: Hs-578T
NCI-H460 = system: NCI-H460
NCI-H23 = system: NCI-H23
SF-268 = system: SF-268
COLO 205 = system: COLO 205
HOP-18 = system: HOP-18
UACC-62 = system: UACC-62
M14 = system: M14
SNB-19 = system: SNB-19
KM-20L2 = system: KM-20L2
DMS-273 = system: DMS-273
EKVX = system: EKVX
DMS-114 = system: DMS-114
MOLT-4 = system: MOLT-4
M19-MEL = system: M19-MEL
RXF 393 = system: RXF 393
MCF7 = system: MCF7
HOP-92 = system: HOP-92
SK-OV-3 = system: SK-OV-3
CCRF-CEM = system: CCRF-CEM
IGROV-1 = system: IGROV-1
MDA-MB-231 = system: MDA-MB-231
DU-145 = system: DU-145
NCI-H226 = system: NCI-H226
BT-549 = system: BT-549
A498 = system: A498
HCC 2998 = system: HCC 2998
T47D = system: T47D
TK-10 = system: TK-10
NCI/ADR-RES = system: NCI/ADR-RES
SK-MEL-28 = system: SK-MEL-28
OVCAR-4 = system: OVCAR-4
XF498 = system: XF498

COc1cc2c(cc1OC)C(Cl)C(c1ccc(F)cc1)=C2Cl (configuration not stated)
GI50 (U-251): 13.1 µM (inactive)
GI50 (PC-3): 12.4 µM (inactive)
GI50 (DLD-1): 16.9 µM (inactive)
GI50 (SR): 3.01 µM (inactive)
GI50 (OVCAR-5): 16.6 µM (inactive)
GI50 (HCT-116): 12.9 µM (inactive)
GI50 (UACC-257): 14.9 µM (inactive)
GI50 (HL-60): 5.68 µM (inactive)
GI50 (SNB-75): 14.6 µM (inactive)
GI50 (HOP-62): 16.5 µM (inactive)
GI50 (HCT-15): 12.9 µM
GI50 (SK-MEL-5): 14.1 µM (inactive)
GI50 (MDA-MB-435): 11.4 µM (inactive)
GI50 (SN12C): 12.8 µM (inactive)
GI50 (SK-MEL-2): 12.8 µM (inactive)
GI50 (LXFL 529): 11.7 µM (inactive)
GI50 (HT-29): 15.9 µM (inactive)
GI50 (NCI-H522): 7.73 µM (inactive)
GI50 (CAKI-1): 13.8 µM (inactive)
GI50 (SF-295): 14.4 µM (inactive)
GI50 (SNB-78): 15.4 µM (inactive)
GI50 (786-0): 11.7 µM (inactive)
GI50 (OVCAR-8): 14.7 µM (inactive)
GI50 (OVCAR-3): 16.7 µM (inactive)
GI50 (ACHN): 13.2 µM (inactive)
GI50 (Malme-3M): 13.2 µM (inactive)
GI50 (UO-31): 13.5 µM (inactive)
GI50 (LOX IMVI): 11.6 µM (inactive)
GI50 (RPMI-8226): 9.06 µM (inactive)
GI50 (SW-620): 12.3 µM (inactive)
GI50 (SF-539): 16.3 µM (inactive)
GI50 (KM12): 16.1 µM (inactive)
GI50 (A549): 14.9 µM (inactive)
GI50 (K562): 6.12 µM (inactive)
GI50 (Hs-578T): 11.7 µM (inactive)
GI50 (NCI-H460): 11.5 µM (inactive)
GI50 (NCI-H23): 11.8 µM (inactive)
GI50 (SF-268): 15.7 µM (inactive)
GI50 (COLO 205): 16.6 µM (inactive)
GI50 (HOP-18): 15.2 µM (inactive)
GI50 (UACC-62): 12.9 µM (inactive)
GI50 (M14): 15.4 µM (inactive)
GI50 (SNB-19): 17.5 µM (inactive)
GI50 (KM-20L2): 14.8 µM (inactive)
GI50 (DMS-273): 16.4 µM (inactive)
GI50 (EKVX): 7.19 µM (inactive)
GI50 (DMS-114): 13.2 µM (inactive)
GI50 (MOLT-4): 5.41 µM (inactive)
GI50 (M19-MEL): 16.8 µM (inactive)
GI50 (RXF 393): 15.4 µM (inactive)
GI50 (MCF7): 11.6 µM (inactive)
GI50 (HOP-92): 9.08 µM (inactive)
GI50 (SK-OV-3): 20.1 µM (inactive)
GI50 (CCRF-CEM): 5.77 µM (inactive)
GI50 (IGROV-1): 17.4 µM (inactive)
GI50 (MDA-MB-231): 13.8 µM (inactive)
GI50 (DU-145): 14.9 µM (inactive)
GI50 (NCI-H226): 22.7 µM (inactive)
GI50 (BT-549): 4.79 µM (inactive)
GI50 (A498): 14.9 µM (inactive)
GI50 (HCC 2998): 15.1 µM (inactive)
GI50 (T47D): 10 µM (inactive)
GI50 (TK-10): 13.6 µM (inactive)
GI50 (NCI/ADR-RES): 13.6 µM (inactive)
GI50 (SK-MEL-28): 17.3 µM (inactive)

CN(C)CC(/C(Cc1ccccc1)=N\NC(=S)NN)c1ccccc1 (configuration not stated)
GI50 (U-251): > 100 µM (inactive)
GI50 (DLD-1): > 100 µM (inactive)
GI50 (SR): > 100 µM (inactive)
GI50 (OVCAR-5): > 100 µM (inactive)
GI50 (HCT-116): > 100 µM (inactive)
GI50 (UACC-257): > 100 µM (inactive)
GI50 (HL-60): > 100 µM (inactive)
GI50 (SNB-75): > 100 µM (inactive)
GI50 (HOP-62): > 100 µM (inactive)
GI50 (HCT-15): > 100 µM
GI50 (SN12C): > 100 µM (inactive)
GI50 (LXFL 529): > 100 µM (inactive)
GI50 (HT-29): > 100 µM (inactive)
GI50 (NCI-H522): > 100 µM (inactive)
GI50 (CAKI-1): > 100 µM (inactive)
GI50 (SF-295): > 100 µM (inactive)
GI50 (SNB-78): > 100 µM (inactive)
GI50 (786-0): > 100 µM (inactive)
GI50 (OVCAR-8): > 100 µM (inactive)
GI50 (OVCAR-3): > 100 µM (inactive)
GI50 (ACHN): > 100 µM (inactive)
GI50 (Malme-3M): > 100 µM (inactive)
GI50 (UO-31): > 100 µM (inactive)
GI50 (LOX IMVI): > 100 µM (inactive)
GI50 (RPMI-8226): > 100 µM (inactive)
GI50 (SW-620): > 100 µM (inactive)
GI50 (OVCAR-4): > 100 µM (inactive)
GI50 (SF-539): > 100 µM (inactive)
GI50 (KM12): > 100 µM (inactive)
GI50 (A549): > 100 µM (inactive)
GI50 (K562): > 100 µM (inactive)
GI50 (NCI-H460): > 100 µM (inactive)
GI50 (NCI-H23): > 100 µM (inactive)
GI50 (XF498): > 100 µM (inactive)
GI50 (SF-268): > 100 µM (inactive)
GI50 (COLO 205): > 100 µM (inactive)
GI50 (UACC-62): > 100 µM (inactive)
GI50 (M14): > 100 µM (inactive)
GI50 (SNB-19): > 100 µM (inactive)
GI50 (KM-20L2): > 100 µM (inactive)
GI50 (DMS-273): > 100 µM (inactive)
GI50 (DMS-114): > 100 µM (inactive)
GI50 (MOLT-4): > 100 µM (inactive)
GI50 (M19-MEL): > 100 µM (inactive)
GI50 (RXF 393): > 100 µM (inactive)
GI50 (HOP-92): > 100 µM (inactive)
GI50 (SK-OV-3): > 100 µM (inactive)
GI50 (IGROV-1): > 100 µM (inactive)
GI50 (NCI-H226): > 100 µM (inactive)
GI50 (HCC 2998): > 100 µM (inactive)
GI50 (TK-10): > 100 µM (inactive)
GI50 (SK-MEL-28): > 100 µM (inactive)

O=C(O)CCCc1cc2c(s1)-c1cccc3cccc-2c13
GI50 (U-251): 25.4 µM (inactive)
GI50 (DLD-1): 39 µM (inactive)
GI50 (SR): 23.7 µM (inactive)
GI50 (OVCAR-5): > 100 µM (inactive)
GI50 (HCT-116): 34.8 µM (inactive)
GI50 (UACC-257): 22.6 µM (inactive)
GI50 (HL-60): 22.4 µM (inactive)
GI50 (SNB-75): 50.4 µM (inactive)
GI50 (HOP-62): 33.3 µM (inactive)
GI50 (HCT-15): 20.2 µM
GI50 (SN12C): 26 µM (inactive)
GI50 (SK-MEL-2): 20.4 µM (inactive)
GI50 (LXFL 529): 35 µM (inactive)
GI50 (HT-29): > 100 µM (inactive)
GI50 (NCI-H522): 21 µM (inactive)
GI50 (CAKI-1): 32.6 µM (inactive)
GI50 (SF-295): 50.1 µM (inactive)
GI50 (SNB-78): 27.6 µM (inactive)
GI50 (786-0): > 100 µM (inactive)
GI50 (OVCAR-8): 39.4 µM (inactive)
GI50 (OVCAR-3): 19.1 µM (inactive)
GI50 (ACHN): 22.4 µM (inactive)
GI50 (Malme-3M): 28.9 µM (inactive)
GI50 (UO-31): 17 µM (inactive)
GI50 (LOX IMVI): 21.9 µM (inactive)
GI50 (RPMI-8226): 21.5 µM (inactive)
GI50 (SW-620): 36.2 µM (inactive)
GI50 (OVCAR-4): 76.9 µM (inactive)
GI50 (SF-539): 45.3 µM (inactive)
GI50 (KM12): 19.4 µM (inactive)
GI50 (A549): 36.6 µM (inactive)
GI50 (K562): 31.9 µM (inactive)
GI50 (NCI-H460): > 100 µM (inactive)
GI50 (NCI-H23): 21.2 µM (inactive)
GI50 (XF498): 36.6 µM (inactive)
GI50 (SF-268): 39.6 µM (inactive)
GI50 (COLO 205): 20.3 µM (inactive)
GI50 (UACC-62): 21.3 µM (inactive)
GI50 (M14): 50.1 µM (inactive)
GI50 (SNB-19): 27.4 µM (inactive)
GI50 (KM-20L2): 52.2 µM (inactive)
GI50 (DMS-273): 37.8 µM (inactive)
GI50 (MOLT-4): 24.1 µM (inactive)
GI50 (HOP-92): 17.7 µM (inactive)
GI50 (SK-OV-3): 19.8 µM (inactive)
GI50 (IGROV-1): 47.3 µM (inactive)
GI50 (NCI-H226): 84.9 µM (inactive)
GI50 (HCC 2998): 24.3 µM (inactive)
GI50 (TK-10): 49 µM (inactive)
GI50 (SK-MEL-28): 34.2 µM (inactive)
